These results are taken from patent US10472366B2, “Glucuronide prodrugs of tofacitinib” (THERAVANCE BIOPHARMA R&D IP, LLC, priority 2017, dated 2019).

Data set [1] has as its system β-glucuronidase in rat colon feces. Description: Rat colon fecal homogenate stability assay. The class given is in vitro ADME. The note with it: in vitro half-life in rat fecal supernatant-homogenate, anaerobic, 10 μM substrate, individual values when assay repeated; for half-life at 10 μM: male, rat, rat colon fecal supernatant-homogenate, read-out: T½. From the text:
The compounds of the present invention contain a glucuronide prodrug moiety that is expected to be cleaved by β-glucuronidase enzyme. The objective of this assay was to determine the half-life for compounds of the present invention in the presence of β-glucuronidase in rat colon feces.
Following sacrifice of a naïve male rat (˜300 g) by cardiac puncture exsanguination, the colon was ligated and removed to an anaerobic chamber (AS-580, Anaerobe Systems). The fecal content was removed within the chamber and was diluted 1:10 with phosphate buffer (1 gram fecal content to 9 mL phosphate buffer) and the resulting mixture was homogenized using a handheld Omni Tissue Master. The fecal homogenate was centrifuged at 2000 g for 10 min to remove bulk material and the supernatant was removed and used for the incubations.
DMSO stock solutions (10 mM) of the test compounds and sulfasalazine (control) were prepared. Sulfasalazine was used as a positive control to confirm viability of the fecal supernatant-homogenate (see, e.g., Azad Khan et al., Clinical Science (1983) 64, 349-354). If the in vitro half-life (T½) for sulfasalazine in the fecal sample was less than 30 min, the fecal sample was deemed to be viable and in true anaerobic conditions. However, if the T½ for sulfasalazine was greater than 30 min, the fecal sample was typically contaminated with oxygen and was not viable. The final substrate concentration of each assay was 10 μM. Reactions were started by adding a 5 μL aliquot of diluted test compound stock solution into 300 μL of rat fecal supernatant-homogenate. At 0, 15, 30, 60, 90, and 120 min post reaction initiation, a 50 μL aliquot was removed and added to a mixture of 200 μL of acetonitrile with 3% formic acid and an internal standard. All samples were centrifuged at 2000 g for 10 min after which 50 μL of supernatant was diluted into 150 μL of water for analysis on an LC-MS system. In vitro half-lives (T½) for the test compounds were calculated as follows: T½=0.693/elimination rate constant. When the assay was performed more than once, individual values are reported.

Data set [2] is described as follows: Oral pharmacokinetics in rat assay. It is filed as in vivo. The note with it: liberated tofacitinib AUC0-6 h in colon tissue; male Sprague Dawley rats, single PO dose 5 mg/kg of test compound. On the procedure: When cleaved by β-glucuronidase enzyme, the compounds of the present invention release tofacitinib. The object of this assay was to determine tofacitinib exposure (AUC0-6 h) in colon tissue and plasma following oral dosing of compounds of the present invention in rats.
Male Sprague Dawley rats (n=2/time point) received a single PO oral gavage dose (5 mg/kg in 1:20 mixture of 5% DMSO and 1% HPMC) of test compounds. At 0.5, 1, 3, 6 and 24 h post-dosing, rats were sacrificed via cardiac puncture exsanguination, and blood samples were taken and placed into sample tubes (Microtainer, Becton, Dickinson and Company) containing sodium fluoride and then placed on ice. Plasma was obtained by centrifugation (Eppendorf centrifuge, 5804R) for 4 minutes at approximately 12,000 rpm at 4° C.
The colons were removed from exsanguinated rats and the colon contents gently removed. The colons were flushed with saline and patted dry. The colons were then homogenized in 3× the weight of sterile water using a tissue homogenizer (Precellys homogenizer, Bertin Instruments) at approximately 4° C. All samples were stored at −80° C. for later bioanalysis.
The concentration of tofacitinib in each sample was determined as follows: the plasma and colon samples were vortexed, combined with a 50 μL aliquot of rat plasma, extracted with 200 μL of ACN containing an internal standard and quantified against the internal standard by LC-MS. An area-under-the-concentration curve (AUC0-6 h) was calculated for plasma and colon test compound and liberated tofacitinib. A key parameter to assess suitability for localized delivery of tofacitinib to the colon was the tofacitinib colon to plasma AUC ratio.

Data set [3] in a line: Oral pharmacokinetics in mouse assay. The class given is in vivo. To be noted: liberated tofacitinib AUC0-6 h in colon tissue; male Balb/c mice, single PO dose 5 mg/kg of test compound. How it is done: When cleaved by β-glucuronidase enzyme, the compounds of the present invention release tofacitinib. The object of this assay was to determine tofacitinib exposure (AUC0-6 h) in colon tissue and plasma following oral dosing of compounds of the present invention in mice.
Male Balb/c mice (n=2/time point) received a single PO oral gavage dose (5 mg/kg in 1:20 mixture of 5% DMSO and 1% HPMC) of the test compound. At 2 h and 6 h post-dosing, mice were sacrificed via cardiac puncture exsanguination and blood samples were taken and placed into sample tubes (Microtainer, Becton, Dickinson and Company) containing sodium fluoride and then placed on ice. Plasma was obtained by centrifugation (Eppendorf centrifuge, 5804R) for 4 min at approximately 12,000 rpm at 4° C.
The colons were removed from the exsanguinated mice and the colon fecal contents were gently removed. The colons were flushed with saline and patted dry. […]
The concentration of tofacitinib in each sample was determined as follows: the plasma and colon homogenate samples were vortexed, combined with a 50 μL aliquot of rat plasma, extracted with 200 μL of ACN containing an internal standard and quantified against the internal standard by LC-MS. An area-under-the-concentration curve (AUC0-6 h) was calculated for plasma and colon test compound and liberated tofacitinib. […]

Data set [4] has as its system oxazolone-induced colitis. Nature of the data set: Mouse model of oxazolone-induced colitis. It is filed as in vivo. The note with it: PO. On the procedure:
Oxazolone-induced colitis is an experimental model that has a histological resemblance to human ulcerative colitis (Heller et al. […], 2002, 17, 629-638). Adult BALB/C mice (25-28 g, 9-12 weeks of age) from BioNeeds (India) were used in the assay. On Day 1, animals were lightly anesthetized with isoflurane and the hairs between the shoulder were carefully removed. Oxazolone (6 mg/mouse, 100 μL, 4:1 acetone:olive oil formulation) or vehicle solution was slowly applied to the bare skin patch to induce skin sensitization. Six days after skin sensitization, the mice were fasted overnight and then anesthetized with ketamine and xylazine administered intraperitoneally. A 1 mL syringe filled with oxazolone solution (0.5 mg/50 μL/mouse in 50% ethanol) or 50% ethanol/saline was inserted carefully ˜3.8 cm into the colon of the mouse. Animals were kept in a head down position and oxazolone or vehicle solution was rectally instilled very slowly over a minute. The mice were held vertically (head down) for another minute to ensure that the entire oxazolone or vehicle solution remained inside the colon. Test compound treatment (PO, BID or TID) or vehicle was initiated the evening prior to the oxazolone intrarectal (IR) challenge. On both first (Day 1) and second (Day 2) days post-oxazolone IR challenge, the Disease Activity Index (DAI) was assessed by treatment-blinded experimenters for each mouse, according to the following subscores: stool consistency (0, normal; 2, loose; 4, diarrhea), gross bleeding and hemoccult test (0, absence; 2, blood tinged; 4, overt blood presence), and weight loss (0, none; 1, 1%-5%; 2, 6^%-10%; 3, 11%-15%; 4, more than 15%); DAI=average of (stool consistency+blood presence+weight loss scores).
An area-under-the-curve (AUC) calculation based on total DAI scores was performed to track disease progression during the course of the experiment. AUC for each experimental group was calculated as: AUC=[(Day 1−Day 0)*Average (DAI Score of Day 0 & Day 1)]+[(Day 2−Day 1)*Average (DAI Score of Day 1 & Day 2)]. A Student's t-test compared the DAI AUC score of the vehicle/vehicle and vehicle/oxazolone groups to evaluate whether disease was induced following oxazolone treatment. This was followed by a one-way analysis of variance (ANOVA), with Dunnett's post hoc test, to compare the DAI AUC score of the vehicle/oxazolone and test compound/oxazolone groups. Statistical significance was defined by an α level set at p<0.05.

[5] abbreviates: 3, 10 and 30 mg/kg, BID, BALB/C mice, vs vehicle/oxazolone, p<0.05.

Molecules are shown by their SMILES. Values joined by “and” are separate entries in the source; they are usually repeats but may differ in a detail not shown here. Identical values can stand only once.

On to `C[C@@H]1CCN(C(=O)CC#N)C[C@@H]1N(C)c1ncnc2c1ccn2C(=O)N(C)Cc1ccccc1NC(=O)O[C@@H]1O[C@H](C(=O)O)[C@@H](O)[C@H](O)[C@H]1O` [Compound IV-1], for which, in data set [1], the T½ is 1 min and < 15 min. Also, the “Colon AUC” value in data set [2] was 5.15 µg·h/g.
For `C[C@@H]1CCN(C(=O)CC#N)C[C@@H]1N(C)c1ncnc2c1ccn2C(=O)N(C)c1cc([N+](=O)[O-])ccc1O[C@@H]1O[C@H](C(=O)O)[C@@H](O)[C@H](O)[C@H]1O` [Compound III-1, (2S,3S,4S,5R,6S)-6-(2-(4-(((3R,4R)-1-(2-Cyanoacetyl)-4-methylpiperidin-3-yl)(methyl)amino)-N-methyl-7H-pyrrolo[2,3-d]pyrimidine-7-carboxamido)-4-nitrophenoxy)-3,4,5-trihydroxytetrahydro-2H-pyran-2-carboxylic Acid], the half-life at 10 μM in data set [1] came out at 2 min. Moreover, the “Colon AUC” value in data set [3] was found to be 6.07 µg·h/g. In addition, the “reversal of oxazolone-induced colitis (DAI AUC score)” value (“reversal of oxazolone-induced colitis” for short) in data set [4] (30 mg/kg, BID, BALB/C mice, vs vehicle/oxazolone, p<0.05) was “statistically significant reversal”.
For the compound `C[C@@H]1CCN(C(=O)CC#N)C[C@@H]1N(C)c1ncnc2c1ccn2C(=O)N(C)CCN(C)C(=O)O[C@@H]1O[C@H](C(=O)O)[C@@H](O)[C@H](O)[C@H]1O` [Compound II-1, (2S,3S,4S,5R,6S)-6-(((2-(4-(((3R,4R)-1-(2-Cyanoacetyl)-4-methylpiperidin-3-yl)(methyl)amino)-N-methyl-7H-pyrrolo[2,3-d]pyrimidine-7-carboxamido)ethyl)(methyl)carbamoyl)oxy)-3,4,5-trihydroxytetrahydro-2H-pyran-2-carboxylic Acid], in data set [1], the T½ was 16 min and < 15 min; the half-life at 10 μM worked out at 14 min. In data set [2], the “Colon AUC” value was 20.2 µg·h/g. In data set [4] (3 and 30 mg/kg, BID, BALB/C mice, vs vehicle/oxazolone, p<0.05), the “reversal of oxazolone-induced colitis” value is “statistically significant reversal”.
For `C[C@@H]1CCN(C(=O)CC#N)C[C@@H]1N(C)c1ncnc2c1ccn2C(=O)N(C)c1ccccc1O[C@@H]1O[C@H](C(=O)O)[C@@H](O)[C@H](O)[C@H]1O` [Compound III-2, (2S,3S,4S,5R,6S)-6-(2-(4-(((3R,4R)-1-(2-Cyanoacetyl)-4-methylpiperidin-3-yl)(methyl)amino)-N-methyl-7H-pyrrolo[2,3-d]pyrimidine-7-carboxamido)phenoxy)-3,4,5-trihydroxytetrahydro-2H-pyran-2-carboxylic Acid], in data set [1], the T½ was 29 min and < 15 min; the half-life at 10 μM turned out to be 20 min. The “Colon AUC” value in data set [2] is 33.2 µg·h/g. The “reversal of oxazolone-induced colitis” value in data set [4] (setting [5]) was “statistically significant reversal”.
With `C[C@@H]1CCN(C(=O)CC#N)C[C@@H]1N(C)c1ncnc2[nH]ccc12` [tofacitinib, 3-((3R,4R)-4-methyl-3-(methyl(7H-pyrrolo[2,3-d]pyrimidin-4-yl)amino)piperidin-1-yl)-3-oxopropanenitrile], the “reversal of oxazolone-induced colitis” value in data set [4] (positive control, 60 mg/kg, experiment with Compound 11-6) is recorded as “did produce a statistically significant reversal”; in data set [4] (positive control, 30 and 60 mg/kg, BID, experiment with Compound II-1) it was “statistically significant reversal”; in data set [4] (positive control, 30 and 60 mg/kg, BID, experiment with Compound III-1), “did not produce a statistically significant reversal”; in data set [4] (positive control, 30 and 60 mg/kg, BID, experiment with Compound III-2) it was “statistically significant reversal”.
On to `C[C@@H]1CCN(C(=O)CC#N)C[C@@H]1N(C)c1ncnc2c1ccn2C(=O)N(C)Cc1ccccc1O[C@@H]1O[C@H](C(=O)O)[C@@H](O)[C@H](O)[C@H]1O` [Compound III-6, (2S,3S,4S,5R,6S)-6-(2-((4-(((3R,4R)-1-(2-Cyanoacetyl)-4-methylpiperidin-3-yl)(methyl)amino)-N-methyl-7H-pyrrolo[2,3-d]pyrimidine-7-carboxamido)methyl)phenoxy)-3,4,5-trihydroxytetrahydro-2H-pyran-2-carboxylic Acid], for which, in data set [1], the T½ is recorded as <15, <15 min and the half-life at 10 μM was below 15 min. In addition, in data set [4] (setting [5]), the “reversal of oxazolone-induced colitis” value is reported as “did not produced a statistically significant effect”.
